Experimental data: PMC3420359 (Journal of computer-aided molecular design, 2011)

How the values were obtained:
rTRPV1 M547L = rTRPV1 M547L (Rattus norvegicus, UniProt O35433, M547L); assay: biochemical; format: binding
rTRPV1 T550A = rTRPV1 T550A (Rattus norvegicus, UniProt O35433, T550A); assay: biochemical; format: binding
rTRPV1 T550I = rTRPV1 T550I (Rattus norvegicus, UniProt O35433, T550I); assay: biochemical; format: binding
rTRPV1 WT = rTRPV1 WT (Rattus norvegicus, UniProt O35433); assay: biochemical; format: binding
Sequence of rTRPV1 WT (O35433 whole entry): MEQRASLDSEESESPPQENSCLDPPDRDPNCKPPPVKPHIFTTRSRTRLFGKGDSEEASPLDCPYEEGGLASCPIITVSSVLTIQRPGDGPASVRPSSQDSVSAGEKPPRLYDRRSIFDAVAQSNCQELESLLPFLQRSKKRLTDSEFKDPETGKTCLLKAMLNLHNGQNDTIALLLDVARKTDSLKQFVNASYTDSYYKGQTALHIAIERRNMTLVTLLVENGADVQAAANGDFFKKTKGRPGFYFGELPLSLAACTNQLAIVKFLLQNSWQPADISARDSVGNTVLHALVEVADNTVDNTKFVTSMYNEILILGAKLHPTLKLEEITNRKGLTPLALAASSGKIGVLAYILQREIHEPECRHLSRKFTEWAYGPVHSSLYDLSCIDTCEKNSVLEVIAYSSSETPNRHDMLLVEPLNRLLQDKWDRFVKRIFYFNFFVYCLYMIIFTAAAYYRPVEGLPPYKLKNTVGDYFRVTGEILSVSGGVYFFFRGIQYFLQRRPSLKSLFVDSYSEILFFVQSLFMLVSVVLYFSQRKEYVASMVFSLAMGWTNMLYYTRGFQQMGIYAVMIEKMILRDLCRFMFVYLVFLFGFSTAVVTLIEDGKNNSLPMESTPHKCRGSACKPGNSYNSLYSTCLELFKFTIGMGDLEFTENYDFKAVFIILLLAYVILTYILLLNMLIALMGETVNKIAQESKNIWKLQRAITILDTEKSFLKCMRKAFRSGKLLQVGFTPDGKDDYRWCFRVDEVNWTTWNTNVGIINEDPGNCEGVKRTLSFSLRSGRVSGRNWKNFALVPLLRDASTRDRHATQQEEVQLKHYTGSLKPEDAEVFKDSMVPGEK

rTRPV1 T550S = rTRPV1 T550S (Rattus norvegicus, UniProt O35433, T550S); assay: biochemical; format: binding
Sequence of rTRPV1 T550S (O35433 whole entry T550S): as the sequence (O35433 whole entry) above, with T550S counted along it

rTRPV1 Y511F = rTRPV1 Y511F (Rattus norvegicus, UniProt O35433, Y511F); assay: biochemical; format: binding
Sequence of rTRPV1 Y511F (O35433 whole entry Y511F): as the sequence (O35433 whole entry) above, with Y511F counted along it

TRPV1 = settings: cited from earlier work

Sequence of rTRPV1 T550I (O35433 whole entry T550I): as the sequence (O35433 whole entry) above, with T550I counted along it
Sequence of rTRPV1 T550A (O35433 whole entry T550A): as the sequence (O35433 whole entry) above, with T550A counted along it
Sequence of rTRPV1 M547L (O35433 whole entry M547L): as the sequence (O35433 whole entry) above, with M547L counted along it

`C=C(C)[C@]12C[C@@H](C)[C@@]34O[C@](Cc5ccccc5)(O[C@@H]1[C@@H]3C=C(COC(=O)Cc1ccc(O)c(OC)c1)C[C@]1(O)C(=O)C(C)=C[C@@H]41)O2` [RTX, resiniferatoxin] gave a Kd (rTRPV1 M547L) of 2.38 ± 0.24 nM, a Kd (rTRPV1 T550A) of 0.417 ± 0.062 nM and a Kd (rTRPV1 T550I) of 4.16 ± 0.82 nM. It also gave a Kd (rTRPV1 WT) of 0.203 ± 0.02 nM, a Maximal binding capacity (rTRPV1 WT) of 6400 fmol/mg protein and a Ratio (rTRPV1 WT) of 1.0. It also gave a Kd (rTRPV1 T550S) of 0.233 ± 0.022 nM and a Kd (rTRPV1 Y511F) of 0.79 ± 0.13 nM.
In the case of `COc1cc(CNC(=S)NCC(COC(=O)C(C)(C)C)Cc2ccc(C(C)(C)C)cc2)ccc1O` (stereo not drawn) [sRTX, N-{3-pivaloyloxy-2-(4-t-butylbenzyl)propyl}-N′-(4-hydroxyl-3-methoxybenzyl)thiourea], the Ki (TRPV1) is listed as 11 nM.
